Tests used:
[1] = system: Balb/3T3 cell line; conditions: 3H-thymidine incorporation, typical range; cited from earlier work
[2] = system: TF-1 cell line; conditions: proliferation of TF-1; typical range; cited from earlier work
[3] = system: CYP3a, CYP2d, CYP2e1 and CYP1a2 in hepatocyte-like cells; assay: Conversion of test compounds by hepatocyte-like cells (HPLC and mass spectrometry of supernatants)
Method: The presence of CYP proteins in the hepatocyte-like cells was also determined by monitoring the conversion of certain compounds added to the hepatocyte-like cells. Two test compounds (7-ethoxy-coumarin and dextromethorphan) were added to hepatocyte-like cells. The supernatants of the cells were then subjected to high pressure liquid chromatography (HPLC) and mass spectrometry to identify products of the conversion of the test compounds by CYP3a, CYP2d, CYP2e1 and CYP1a2.

[4] = system: 4MBr-5 cell line; conditions: 3H-thymidine incorporation, typical range; cited from earlier work
[5] = system: hepatocyte-like cells; assay: Dibenzylfluorescein (DBF) assay for metabolic activity of hepatocyte-like cells; format: in vitro ADME, mouse; conditions: hepatocyte-like cells differentiated in presence or absence of HPO
Method: Another test that was used to characterize the hepatocyte-like cells is the dibenzylfluorescein (DBF) assay for metabolic activity. See, for example, Stresser et al., Drug Metab. Disp., 28:1440-48 (2000). These assays were conducted using a DBF compound (Molecular Probes, Eugene Oreg.) according to the manufacturer's recommendations.

[6] = system: cells differentiating from ES cells into hepatocyte-like cells; assay: In vitro differentiation of mouse ES cells into hepatocyte-like cells with hepatopoietin added to the media; format: cell-based
Method: Mouse ES cells were differentiated into hepatocyte-like cells as described above, with the addition of 50 ng/ml mouse hepatopoietin protein to the HepII, HepIII and/or HepIV media. The mouse hepatopoietin protein consisted of a portion of the wild-type protein, which portion has the amino acid sequence set forth in SEQ ID NO: 16.
The presence of hepatopoietin in either medium had this effect, but the strongest effect was seen when it was included in all three media, i.e., during the middle stage, the late stage and the maturation and selection stage. In this case, it appeared that over 90% of the cells in the culture were hepatocyte-like cells.

[7] = system: NIH/3T3 cells; conditions: 3H-thymidine incorporation, quiescent NIH/3T3; typical range; cited from earlier work

human recombinant aFGF: human recombinant acidic fibroblast growth factor
ED50 [1]: 2 to 10 ng/mL

human recombinant OSM: human recombinant oncostatin M
ED50 [2]: 0.1 to 3 ng/mL

COc1ccc2c(c1)[C@]13CCCC[C@@H]1[C@H](C2)N(C)CC3 [dextromethorphan]
conversion products by CYP3a, CYP2d, CYP2e1 and CYP1a2 ([3]; added to hepatocyte-like cells, supernatants by HPLC and mass spectrometry): expected conversion products were obtained

human recombinant HGF: human recombinant hepatocyte growth factor
ED50 [4]: 20 to 40 ng/mL

CCOc1ccc2ccc(=O)oc2c1 [7-ethoxy-coumarin]
conversion products by CYP3a, CYP2d, CYP2e1 and CYP1a2 ([3]; hepatocytes): expected conversion products were obtained

O=C(OCc1ccccc1)c1ccccc1-c1c2ccc(=O)cc-2oc2cc(OCc3ccccc3)ccc12 [DBF, dibenzylfluorescein]
DBF assay for metabolic activity [5]: positive

mouse HPO: portion of wild-type mouse hepatopoietin, 125 amino acids, SEQ ID NO: 16, produced in E. coli
proliferation of cells giving rise to hepatocyte-like cells ([6]; 50 ng/ml in HepII, HepIII and/or HepIV media): stimulates the proliferation
cells in the culture that were hepatocyte-like cells ([6]; 50 ng/ml included in all three media (middle, late, maturation and selection stages)): over 90%

B1: mouse recombinant OSM: mouse recombinant oncostatin M (protein, UniProt P53347 25-206, looked up)
Oncostatin-M: NRGCSNSSSQLLSQLQNQANLTGNTESLLEPYIRLQNLNTPDLRAACTQHSVAFPSEDTLRQLSKPHFLSTVYTTLDRVLYQLDALRQKFLKTPAFPKLDSARHNILGIRNNVFCMARLLNHSLEIPEPTQTDSGASRSTTTPDVFNTKIGSCGFLWGYHRFMGSVGRVFREWDDGSTRSRR
ED50 [7]: 2 to 4 ng/mL

Reference: patent US20040191902A1, “Growth and differentiation of stem cells” (Pfizer Inc, priority 2003, published 2004)
